Experiment [1] has as its system ABC G1. Nature of the experiment: Model of differentiation of normal human keratinocytes: gene expression (mRNA) of ABC G1. Type of experiment: cell-based. To be noted: NHK, with respect to non-treated cells. The source says:
(§1) First, the effects of extracts according to the invention have first been studied from a model of differentiated normal human keratinocytes (NHK).
(§2) The effect of the extracts of Moringa sp. on the gene expression of different proteins involved in the synthesis or the transport of the epidermal lipids, ABC G1 and hDES2, has been analyzed.
(§3) The results are expressed in percentage of stimulation of the gene expression (mRNA) of different markers of the epidermal differentiation expressed by the NHKs (with respect to the non-treated cells). A significant positive effect is considered from 100% of stimulation.

Experiment [2] relates to hDES2. Nature of the experiment: Model of differentiation of normal human keratinocytes: gene expression (mRNA) of hDES2. To be noted: NHK, with respect to non-treated cells. It counts as cell-based.
Excerpt: as §1, §2, §3

The nature of experiment [3]: DPPH test (antioxidant activity). Particulars: methanolic solution of DPPH at 0.06 mM, absorption at 517 nm. The source says: The antioxidant activity of the seed extract of Moringa oleifera according to the present invention has been evaluated with the DPPH test. This test is based on the measure of the capacity for trapping antioxidants of the stable radical 2.2-diphenyl-1-picrylhydrazyl (DPPH). This stable radical, having absorption at 517 nm, is reduced to the corresponding hydrazine when it reacts with a hydrogen donor.
The results obtained are expressed in IC50, corresponding to the concentration giving 50% reduction in absorbance of a methanolic solution of DPPH at 0.06 mM.
A general note: DPPH is a stable violet radical that fades when it is reduced.

As to `CN(CCOc1ccc(CC2SC(=O)NC2=O)cc1)c1ccccn1` (centres unmarked) [Roziglitazone, roziglitazone], the “percentage of stimulation of the gene expression (mRNA) of ABC G1” value in experiment [1] (10 μM) came out at 330%. The “percentage of stimulation of the gene expression (mRNA) of hDES2” value in experiment [2] (10 μM) is 190%. `C=C1CC[C@H](O)C/C1=C/C=C1\CCC[C@]2(C)[C@@H]([C@H](C)CCCC(C)C)CC[C@@H]12` [Vit D3, vitamin D3]: the “percentage of stimulation of the gene expression (mRNA) of ABC G1” value in experiment [1] (5 μM) was found to be 170%. In addition, in experiment [2] (5 μM), the “percentage of stimulation of the gene expression (mRNA) of hDES2” value was 780%. As to Vitamin E, the “IC50 (concentration giving 50% reduction in absorbance of DPPH solution)” value in experiment [3] lay in the range of 6 to 10 µg/mL.
